Converted amounts (≈) assume the structure as drawn. Read-outs that look alike come from different tables or passages of the source.

The text below walks through data of patent publication US10828315B2 (Madrigal Pharmaceuticals, Inc., priority 2013, dated 2020).

Data set [1] concerns human SCLC tumor xenografts. In words: Antitumor activity in human SCLC tumor xenografts. Type of data set: in vivo, mice. For orientation: A xenograft is tissue or cells of one species grown in another, often human tumour cells in immunodeficient mice.
Data set [2] is described as follows: Chemical properties of SDC-TRAP-0063. Format: physicochemical. An excerpt: SDC-TRAP-0063 is a light yellow solid having the following chemical properties: […]
Data set [3] in a line: Artificial membrane permeability assay (PAMPA). The following applies: same protocol, second table.
Method: Pre-coated PAMPA plates were warmed to room temperature for at least 30 minutes prior to adding assay components.
Stock solutions were prepared with the SDC-TRAP molecules to be tested. In order to make a working solution, either 50 μL of 100 μM Stock in DMSO+950 μL of PBS or 50 μL of 200 μM stock was added to 96 deep well plate, resulting in a 5 μM final concentration or a 10 μM final concentration, respectively. 3000 μL of the working solution containing each compound to be tested was added to the appropriate well of a donor PAMPA plate. 200 μL of PBS was added into the corresponding wells of an acceptor PAMPA plates.
The acceptor plate was lowered onto the donor plate and allowed to incubate for five hours. After five hours, a 50 μL aliquot was removed from each well of each plate and added into a new 96 deep-well plate.
100 μL of methanol containing an internal standard was added to each aliquot and analyzed by LC/MS.
In order to calculate the permeability for each SDC-TRAP molecule and the control molecules, the following formula was used:
For data set [4], the system named is human urinary bladder cancer cell line RT-112. As to the kind of experiment: Cytotoxicity assay (CellTiter-Glo, 72 h), RT-112. Type of data set: cell-based. As to conditions: RT-112, 72 hours, read-out: Cytotoxicity (IC50, nM) RT-112. For orientation: In ATP-based viability assays light output follows the ATP content of the culture.
Method: Cytotoxicity of SDC-TRAP molecules was determined in three cancer cell lines. […] 80 μL of CellTiter-Glo was added to each well, followed by room temperature incubation in the dark for 15 minutes. Cell was determined by luminescence. IC50 was calculated using XLfit™ software.
For data set [5] the following is noted: mouse.
Data set [6] deals with Hsp90 client proteins (EGFR, MET, CDC2), Hsp70, DNA damage markers. As to the kind of experiment: Pharmacodynamics in SCLC xenograft tumors. Type of data set: in vivo.
Setting [7] is: SCLC xenograft tumors, 24 hrs after drug exposure.

The term logP denotes the decadic logarithm of the partition coefficient of the neutral form, usually between octanol and water. By pKa is commonly meant the pH at which an ionisable group is half protonated. The low end stands for a group that gives up its proton readily, the high end for a group that holds its proton tightly. The solubility is the concentration that dissolves in the medium under given conditions. For orientation: IC50 means the concentration needed to halve the response being measured. With `CCc1c2c(nc3ccc(OC(=O)N4CCC(CCn5ccc6cc(-n7c(O)nnc7-c7cc(C(C)C)c(O)cc7O)ccc65)CC4)cc13)-c1cc3c(c(=O)n1C2)COC(=O)[C@]3(O)CC` [SDC-TRAP-0063, 4,11-diethyl-4-hydroxy-3,14-dioxo-3,4,12,14-tetrahydro-1H-pyrano[3′,4′:6,7]indolizino[1,2-b]quinolin-9-yl 4-(2-(5-(3-(2,4-dihydroxy-5-isopropylphenyl)-5-hydroxy-4H-1,2,4-triazol-4-yl)-1H-indol-1-yl)ethyl)piperidine-1-carboxylate], the tolerability result in data set [1] (SCLC xenografts) was “very well tolerated”. The “antitumor activity in SCLC xenografts (FIG. 19)” value in data set [1] (once weekly for three weeks, then drug-free period, SDC-TRAP-0063 100 and 150 mg/kg) was “remarkable and durable antitumor activity compared with irinotecan or ganetespib plus irinotecan”. The molecule also came in with a lipophilicity (logP) in data set [2] of 4.69. This molecule also displayed a pKa in data set [2] of 9.27. In data set [2] (In water (pH = 11.8*)), the “Stability remark beside solubility” value was “not stable”. In addition, the solubility in data set [2] (aqueous buffer, In water (pH = 9.7)) was found to be 33 µg/mL (≈ 37.5 µM); in data set [2] (aqueous buffer, In water (pH = 11.8*)), 926 µg/mL (≈ 1050 µM); in data set [2] (ethanol, organic solvent or mixture, In EtOH) it was 1560 µg/mL (≈ 1770 µM); in data set [2] (organic solvent or mixture, In PEG300) it was 5640 µg/mL (≈ 6410 µM). Further, in data set [3], the “Mass Retention” value came to 18.7%. The half-maximal inhibitory concentration (IC50) in data set [4] is 83 nM. Moreover, the “Peak Area Ratio” value in data set [5] (0 h, 10 μM) turned out to be 17.9; in data set [5] (0.5 h, 10 μM), 7.77; in data set [5] (1 h, 10 μM), 1.98; in data set [5] ([…], 10 μM), 15.6. Further, the “% Remaining (1 h)” value in data set [5] (plasma, 1 h, 10 µM) is recorded as 11.1%; in data set [5] (plasma, 1 h, 10 μM), 11.1%. The “% Remaining (1 h, 37° C.)” value in data set [5] (plasma, 1 h, 10 µM) was 11.1%. Moreover, the “kinetics of acetyl-histone H3 induction” value in data set [6] (SCLC xenograft tumors, 24, 72 and 96 hrs) is given as “gradual increase in H3ac levels, peaking at 96 hr”. Further, in data set [6] (setting [7]), the “Hsp90 client proteins (EGFR, MET, CDC2) and Hsp70 expression” value is given as “slight increase in Hsp70 with no impact on EGFR, MET or CDC2”. The “markers for DNA damage (acetyl-histone H3, p53, p-H2AX)” value in data set [6] (setting [7]) is listed as “dramatic increase in markers for DNA damage”. Besides, the “phosphorylation of p53” value in data set [6] (SCLC xenograft tumors, out to 96 hrs) is reported as “induced by both agents, though more so with SDC-TRAP-0063”.
